Reference: US5763430A, “Method of treating a viral infection by administering a steroid compound” (priority 1995, dated 1998)
Converted amounts (≈) assume the structure as drawn. “Also recorded” adds a separate entry of the source.

Assays:
melanoma 1205Lu = experiment: suppression of growth of human melanoma in immunocompromised (RAG-1) mice; type: in vivo, human melanoma in mouse; conditions: FIG. 5, listed as Squalamine
Description: As apparent from FIG. 5, melanoma 1205Lu develops aggressively in RAG-1 mice after implantation.

[1] = tested on: human epithelial cell line MCF 10A; experiment: growth inhibition of epithelial cells in vitro (absorbance at 600 nm); type: cell-based; conditions: 10 μg/ml, FIG. 3B
[2] = tested on: stage 59-60 Xenopus tadpole; experiment: Xenopus tadpole assay; conditions: 10 μg/ml; for tadpole response: about 1 hour
human lymphocytes = experiment: inhibition of mitogen (PHA)-stimulated growth of human T-cells; conditions: 10 μg/ml
Description: Specific assays were used to identify steroids with a particular biological activity, such as an assay for inhibition of mitogen-stimulated growth of human T-cells.
Human heparinized blood, freshly collected, was introduced into tissue culture flasks containing 10 μg/ml phytohaemagglutinin (PHA) in RPMI medium with 10% FCS. Various purified steroids were introduced subsequently at concentrations of 1, 5, and 10 μg/ml. Cultures were incubated for 72 hours, after which time colcemid was added to 1 μg/ml. Cultures were maintained for an additional 2 hours, and cells collected. Miotic figures were estimated using standard cytochemical techniques, following Giemsa staining.

[3] = tested on: human coronary artery smooth muscle; experiment: proliferation of human coronary artery smooth muscle in vitro; type: cell-based; conditions: FIG. 15
Description: Aminosterols of the invention may also have utility in inhibiting the growth factor mediated proliferation of smooth muscle within the artery. Following coronary angioplasty, reocclusion commonly occurs, secondary to reparative proliferation of the vascular smooth muscle within the wall of the surgically manipulated blood vessel. This process generally takes place over the course of 7-10 days. To evaluate whether an agent could prevent the growth factor mediated proliferation of smooth muscle within the artery, compound 1436 was evaluated in vitro for its effect on the proliferation of human coronary artery smooth muscle. Results for compound 1436 are shown in FIG. 13, and those for squalamine are shown in FIG. 14, with FIG. 15 being a composite logarithmic plot.

mouse IV PK study = type: in vivo; conditions: i.v., mouse blood stream, HPLC
Description: To assess clearance, a mouse IV PK study was performed for compound 319 and squalamine. The compound was administered i.v. and blood samples were taken every 10 minutes. The concentration of the administered steroid was determined by HPLC analysis.

P. aerug = experiment: antibiotic activity (MIC); type: cell-based; conditions: P. aerug; read-out: MIC
Description: (§1) Thus, it is possible to achieve an antimicrobial steroid with or without squalamine-like pharmacological activity.

E. coli = experiment: antibiotic activity (MIC); type: cell-based; conditions: Escherichia coli; E. coli; read-out: MIC
Description: as §1

S. aureus = experiment: antibiotic activity (MIC); type: cell-based; conditions: Staphylococcus aureus; S. aureus; read-out: MIC
Description: as §1

C. albicans = experiment: antibiotic activity (MIC); type: cell-based; conditions: Candida albicans; C. albicans; read-out: MIC
Description: as §1

rabbit NHE1 = experiment: internal pH changes in PS120 fibroblasts transfected with rabbit NHE1; type: cell-based; conditions: 5 μg/ml, FIG. 2A
Description: PS120 fibroblasts transfected with rabbit: or human NHE1 were grown as described above.

[4] = tested on: human foreskin fibroblasts; experiment: growth inhibition of fibroblasts in vitro (absorbance at 600 nm); type: cell-based; conditions: 10 μg/ml, FIG. 3C
[5] = tested on: chick chorioallantoic membrane; experiment: chorioallantoic membrane (CAM) model, inhibition of capillary growth; type: in vivo; conditions: 3-Day embryo
Description: The growing capillaries within the chorioallantoic membrane model (CAM model) have been used as a system in which to evaluate the effect of agents on their potential to inhibit new vessel growth. Neovascularization occurs most aggressively over the first week of embryonic development. Thereafter capillary growth is characterized by principally "elongation" rather than "de novo" formation.
In the standard assay, agents are applied locally to a region of the embryo over which neovascularization will occur. Agents are assessed by their ability to inhibit this process, as evaluated by visual examination about 7 days after application. […] The assay utilized is described in detail in Auerbach et al., Pharm. Ther. 51, 1991, 1-11.

[6] = tested on: human umbilical venous endothelial cells; experiment: LPS-induced neutrophil adherence to human umbilical venous endothelial cells; conditions: 10 μg, 1.0 μg, or 0.1 μg; activated human endothelial cells
Description: In these experiments, approximately 2×10^5 human umbilical venous cells (passage 2-6) were plated per well. The cells were grown in serum-free media overnight. For induction, either TNF-α (40 ng/ml) was added to endothelial cells for 6 hours prior to adding neutrophils or LPS (100 ng/ml) was added for 4-6 hours. […] After activation of the endothelial cells, approximately 50×10^6 neutrophils were added per well. The plates were gently rocked for 30 minutes at room temperature, followed by removal of the media and washing in serum-free media three times and then photographing of each well. […] A monoclonal Ab to ICAM-1 was a positive control.

Murine B16 melanoma = experiment: growth inhibition in vitro; type: cell-based; conditions: except at very high concentrations
Description: As set forth in Table 7 below, all malignant tumors evaluated in tissue culture, endothelial cells and vascular smooth muscle cells were sensitive to inhibition. Thus, compound 1436 has application in the control of growth factor dependent proliferation of many types of tissue.

[7] = tested on: bovine pulmonary endothelial cells; experiment: growth inhibition of endothelial cells in vitro (absorbance at 600 nm); type: cell-based; conditions: 1 μg/ml, FIG. 3A
[8] = tested on: human microvascular cells; experiment: inhibition of endothelial cell cord formation in vitro; type: cell-based
Method in brief: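 Human microvascular endothelial cells plated on collagen matrix with VEGF and basic FGF; compound effect on cord-like structure formation scored in a standard cord formation assay.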

[9] = tested on: chick embryo vitelline capillaries; experiment: chick embryo vitelline capillary regression assay; type: in vivo
Method in brief: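 Compounds were applied to 3-day chick embryos in 0.1 ml of 15% Ficol 400 and PBS. Regression of vitelline capillaries was scored visually 60 minutes later.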

CC(C)[C@@H](CC[C@@H](C)[C@H]1CC[C@H]2[C@@H]3[C@H](O)C[C@H]4C[C@@H](NCCCNCCCCN)CC[C@]4(C)[C@H]3CC[C@]12C)OS(=O)(=O)O [Compound 1256]
growth of melanoma 1205Lu (melanoma 1205Lu): suppress the growth of melanoma 1205Lu in RAG-1 mice in a dose-dependent fashion; also recorded: clear suppression of tumor growth in a dose-dependent fashion | growth of epithelial cells [1]: no effect on the growth | time to death of tadpole [2]: ≤ 2 h | tadpole response [2]: Vascular occlusion in fine capillaries of tail. No effect on vascular flow through hands or feet | tadpole response ([2]; listed as squalamine): blood flow through the capillaries of the tail shut down; also recorded: common vascular occlusive effect | inhibition of blast transformation (human lymphocytes): Some effect | growth of human coronary artery smooth muscle [3]: suppress in vitro the growth | half-life (mouse IV PK study): ~35 min | MIC (P. aerug): 16 µg/mL (≈ 25.5 µM) | MIC (E. coli): 2 to 4 µg/mL (≈ 3.18 to 6.37 µM) | MIC (S. aureus): 0.5 to 1 µg/mL (≈ 0.796 to 1.59 µM) | MIC (C. albicans): 8 µg/mL (≈ 12.7 µM) | inhibition of rabbit NHE1 (rabbit NHE1): no inhibitory activity | growth of fibroblasts [4]: no effect on the growth | Percentage positive ([5]; 0.65 μg, Assay 1): 28 Percentage | Percentage positive ([5]; 1.25 μg, Assay 1): 18 Percentage | Percentage positive ([5]; 1.25 μg, Assay 2): 18 Percentage | Percentage positive ([5]; 1.25 μg, Mean): 18 Percentage | Percentage positive ([5]; 2.5 μg, Assay 1): 35 Percentage | Percentage positive ([5]; 2.5 μg, Assay 2): 18 Percentage | Percentage positive ([5]; 2.5 μg, Mean): 27 Percentage | Percentage positive ([5]; 5.0 μg, Assay 1): 91 Percentage | Percentage positive ([5]; 5.0 μg, Assay 2): 57 Percentage | Percentage positive ([5]; 5.0 μg, Mean): 74 Percentage | Percentage positive ([5]; 20 μg, Assay 1, some vascular irritation): 52 Percentage | Percentage positive ([5]; 20 μg, Assay 2, some vascular irritation): 58 Percentage | Percentage positive ([5]; 20 μg, Mean): 55 Percentage | Percentage positive ([5]; 40 μg, Assay 1, some vascular irritation): 50 Percentage | Percentage positive ([5]; 40 μg, Assay 2, some vascular irritation): 13 Percentage | Percentage positive ([5]; 40 μg, Mean): 32 Percentage | vascular irritation ([5]; 20 and 40 μg): Some vascular irritation noted | inhibition of neutrophil adherence [6]: no inhibition | cytostatic activity against B16 in culture (Murine B16 melanoma): minimal cytostatic activity | growth of bovine pulmonary artery endothelial cells [7]: inhibited the growth | minimal effective concentration ([8]; Homo sapiens, Endothelial cell, Table II, read-out: Minimum Effective Concentration, Cord Formation): 0.01 to 0.1 µg/mL | cell viability or proliferation ([8]; at cord-inhibiting concentrations): does not appear to profoundly affect cell viability or proliferation | effect on vitelline capillaries ([9]; 3- to 5-day chick embryos): disrupt vitelline capillaries | relative activity ([9]; Table 5): especially active | lag period ([9]; constriction between capillary and secondary vessels): around 15 minutes | hemorrhage / hemolysis ([9]; in vivo, listed as Squalamine): No hemorrhage was seen; also recorded: absence of hemolysis
